We go through six compounds from ChEMBL document CHEMBL5029196, “Novel Isoindolone Compounds as HPK1 Inhibitors for Treating Cancer” (ACS Med Chem Lett, 2022).

Usually Ki stands for the dissociation constant of the complex between target and ligand, obtained from inhibition or displacement.

The target in the test is Mitogen-activated protein kinase kinase kinase kinase 1 (Homo sapiens, UniProt Q92918). Kind of test: Inhibition of human full length recombinant HPK1 using 5FAM-AKRRRLSSLRACOOH as substrate preincubated for 20 mins and measured for 60 mins by microfluidic mobility shift assay.
Chain of Mitogen-activated protein kinase kinase kinase kinase 1 (Q92918 whole entry): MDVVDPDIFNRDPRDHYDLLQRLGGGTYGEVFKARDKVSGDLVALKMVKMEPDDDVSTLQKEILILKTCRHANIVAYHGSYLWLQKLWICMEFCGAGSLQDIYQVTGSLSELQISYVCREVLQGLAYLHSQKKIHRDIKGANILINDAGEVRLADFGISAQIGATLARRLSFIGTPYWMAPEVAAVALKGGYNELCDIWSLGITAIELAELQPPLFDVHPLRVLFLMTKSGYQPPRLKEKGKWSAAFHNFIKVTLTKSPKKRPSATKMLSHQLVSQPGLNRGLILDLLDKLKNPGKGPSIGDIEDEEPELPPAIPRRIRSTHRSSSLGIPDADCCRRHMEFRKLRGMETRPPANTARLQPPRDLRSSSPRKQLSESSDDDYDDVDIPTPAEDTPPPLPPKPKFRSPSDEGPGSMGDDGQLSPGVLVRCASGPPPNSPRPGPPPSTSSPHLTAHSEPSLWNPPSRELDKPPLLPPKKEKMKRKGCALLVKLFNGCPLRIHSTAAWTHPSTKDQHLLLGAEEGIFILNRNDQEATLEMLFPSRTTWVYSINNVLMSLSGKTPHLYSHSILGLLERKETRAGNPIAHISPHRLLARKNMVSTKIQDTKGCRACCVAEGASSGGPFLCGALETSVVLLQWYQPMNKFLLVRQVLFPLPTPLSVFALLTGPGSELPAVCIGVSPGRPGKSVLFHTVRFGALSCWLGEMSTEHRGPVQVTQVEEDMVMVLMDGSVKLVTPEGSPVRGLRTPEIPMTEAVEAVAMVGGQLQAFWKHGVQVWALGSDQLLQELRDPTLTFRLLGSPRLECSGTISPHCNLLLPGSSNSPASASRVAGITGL
In the case of `CNCc1cc(OC)cc2c1CN(c1cccc(-c3nncn3[C@@H](C)C3CC3)n1)C2=O`, the inhibition constant Ki is 0.2 nM.

`COc1cc2c(c(S(N)(=O)=O)c1)CN(c1cccc(-c3nncn3C(C)C)n1)C2=O`: the inhibitory constant (Ki) stood at 0.4 nM.

Take `CC[C@H](C)n1cnnc1-c1cccc(N2Cc3c(CNC)cc(N4CCCC4)cc3C2=O)n1`: the Ki turned out to be 0.3 nM.

On to `COc1cc(CN)c2c(c1)C(=O)N(c1cccc(-c3nncn3[C@@H](C)CC(F)(F)F)n1)C2`, for which the Ki was found to be 0.3 nM.

Take `CC[C@@H](CC(F)(F)F)n1cnnc1-c1cccc(N2Cc3c(CNC)cc(OC)cc3C2=O)n1`: the inhibition constant Ki is 0.4 nM.

Consider `CC[C@H](C)n1cnnc1-c1cccc(N2Cc3c(CNC)cc(N(C)C)cc3C2=O)n1`, for which the Ki came out at 0.4 nM.
